Experimental data published in ChEMBL document CHEMBL1201862, “PubChem BioAssay data set” (2004).
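Interpolation was linear, between the two tested concentrations surrounding the appropriate level; five concentrations were tested over 48 hours in 96-well plates. GI50 = concentration required for 50% inhibition of growth.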 The source made the active and inactive calls. Rule as the data show it: active = GI50 up to about 1.1 µM and inactive = higher.

What was measured:
Test in all cases: NCI-60 cell line screen, 48 h
[1] = tested on: HL-60
[2] = tested on: T47D
[3] = tested on: Malme-3M
[4] = tested on: RPMI-8226
[5] = tested on: DU-145
[6] = tested on: ACHN
[7] = tested on: EKVX
[8] = tested on: U-251
[9] = tested on: A549
[10] = tested on: UO-31
[11] = tested on: OVCAR-5
[12] = tested on: OVCAR-4
[13] = tested on: MDA-MB-231
[14] = tested on: SW-620
[15] = tested on: OVCAR-8
[16] = tested on: TK-10
[17] = tested on: LOX IMVI
[18] = tested on: SF-295
[19] = tested on: SK-MEL-2
[20] = tested on: OVCAR-3
[21] = tested on: IGROV-1
[22] = tested on: SK-MEL-28
[23] = tested on: HCT-116
[24] = tested on: SNB-75
[25] = tested on: 786-0
[26] = tested on: SK-OV-3
[27] = tested on: SF-268
[28] = tested on: SK-MEL-5
[29] = tested on: SN12C
[30] = tested on: HCT-15
[31] = tested on: K562
[32] = tested on: HOP-62
[33] = tested on: Hs-578T
[34] = tested on: NCI-H460
[35] = tested on: SNB-19
[36] = tested on: MCF7
[37] = tested on: NCI/ADR-RES
[38] = tested on: HT-29
[39] = tested on: NCI-H23
[40] = tested on: COLO 205
[41] = tested on: CCRF-CEM
[42] = tested on: CAKI-1
[43] = tested on: UACC-257
[44] = tested on: KM12
[45] = tested on: MOLT-4
[46] = tested on: A498
[47] = tested on: SF-539
[48] = tested on: PC-3
[49] = tested on: SR
[50] = tested on: MDA-N
[51] = tested on: RXF 393
[52] = tested on: NCI-H226
[53] = tested on: UACC-62
[54] = tested on: MDA-MB-435
[55] = tested on: M14
[56] = tested on: HOP-92
[57] = tested on: HCC 2998

## Cc1ccc(N(C(=O)Nc2ccc(F)c(Cl)c2)C2=NCC(C)S2)cc1 (stereo not given)
[1]
  GI50: 23.8 µM (inactive)
[2]
  GI50: 33 µM (inactive)
[3]
  GI50: 77.3 µM (inactive)
[4]
  GI50: > 10 µM (inactive)
[5]
  GI50: > 100 µM (inactive)
[6]
  GI50: 50.2 µM (inactive)
[7]
  GI50: 49.9 µM (inactive)
[8]
  GI50: 50.6 µM (inactive)
[9]
  GI50: 57.3 µM (inactive)
[10]
  GI50: > 100 µM (inactive)
[11]
  GI50: > 100 µM (inactive)
[12]
  GI50: 38.7 µM (inactive)
[13]
  GI50: > 100 µM (inactive)
[14]
  GI50: 74 µM (inactive)
[15]
  GI50: 48.2 µM (inactive)
[16]
  GI50: 29.7 µM (inactive)
[17]
  GI50: 30.2 µM (inactive)
[18]
  GI50: 49.3 µM (inactive)
[19]
  GI50: 61.5 µM (inactive)
[20]
  GI50: 45.3 µM (inactive)
[21]
  GI50: > 100 µM (inactive)
[22]
  GI50: 19.9 µM (inactive)
[23]
  GI50: 38.6 µM (inactive)
[24]
  GI50: 17.9 µM (inactive)
[25]
  GI50: 57.8 µM (inactive)
[26]
  GI50: > 100 µM (inactive)
[27]
  GI50: 27.8 µM (inactive)
[28]
  GI50: 18.7 µM (inactive)
[29]
  GI50: 67 µM (inactive)
[30]
  GI50: 52.7 µM
[31]
  GI50: 43.9 µM (inactive)
[32]
  GI50: > 100 µM (inactive)
[33]
  GI50: > 100 µM (inactive)
[34]
  GI50: 45.1 µM (inactive)
[35]
  GI50: > 100 µM (inactive)
[36]
  GI50: 8.83 µM (inactive)
[37]
  GI50: 22.6 µM (inactive)
[38]
  GI50: 36 µM (inactive)
[39]
  GI50: 28.6 µM (inactive)
[40]
  GI50: 72.4 µM (inactive)
[41]
  GI50: 42.2 µM (inactive)
[42]
  GI50: 22.2 µM (inactive)
[43]
  GI50: 53.2 µM (inactive)
[44]
  GI50: 42 µM (inactive)
[45]
  GI50: 31.6 µM (inactive)
[46]
  GI50: 34.3 µM (inactive)
[47]
  GI50: 76.9 µM (inactive)
[48]
  GI50: 46.7 µM (inactive)
[49]
  GI50: 40.2 µM (inactive)
[50]
  GI50: 46.7 µM (inactive)

## O=C(Cc1ccccc1)NN1C(=O)/C(=C\c2ccc([N+](=O)[O-])cc2)S/C1=N\c1ccccc1
[2]
  GI50: 62.1 µM (inactive)
[4]
  GI50: > 100 µM (inactive)
[5]
  GI50: > 100 µM (inactive)
[6]
  GI50: > 100 µM (inactive)
[7]
  GI50: > 100 µM (inactive)
[8]
  GI50: > 100 µM (inactive)
[9]
  GI50: > 100 µM (inactive)
[10]
  GI50: > 100 µM (inactive)
[11]
  GI50: > 100 µM (inactive)
[12]
  GI50: > 100 µM (inactive)
[13]
  GI50: > 100 µM (inactive)
[14]
  GI50: > 100 µM (inactive)
[51]
  GI50: > 100 µM (inactive)
[15]
  GI50: 77.6 µM (inactive)
[16]
  GI50: > 100 µM (inactive)
[18]
  GI50: > 100 µM (inactive)
[19]
  GI50: > 100 µM (inactive)
[52]
  GI50: > 100 µM (inactive)
[20]
  GI50: 47.8 µM (inactive)
[21]
  GI50: > 100 µM (inactive)
[22]
  GI50: > 100 µM (inactive)
[23]
  GI50: > 100 µM (inactive)
[24]
  GI50: > 100 µM (inactive)
[25]
  GI50: > 100 µM (inactive)
[26]
  GI50: > 100 µM (inactive)
[27]
  GI50: > 100 µM (inactive)
[28]
  GI50: > 100 µM (inactive)
[29]
  GI50: > 100 µM (inactive)
[30]
  GI50: > 100 µM
[31]
  GI50: 42.5 µM (inactive)
[32]
  GI50: > 100 µM (inactive)
[33]
  GI50: > 100 µM (inactive)
[34]
  GI50: > 100 µM (inactive)
[53]
  GI50: 61.1 µM (inactive)
[35]
  GI50: > 100 µM (inactive)
[36]
  GI50: 63.2 µM (inactive)
[37]
  GI50: > 100 µM (inactive)
[38]
  GI50: > 100 µM (inactive)
[39]
  GI50: 68.5 µM (inactive)
[40]
  GI50: > 100 µM (inactive)
[41]
  GI50: 68.9 µM (inactive)
[54]
  GI50: > 100 µM (inactive)
[43]
  GI50: > 100 µM (inactive)
[44]
  GI50: > 100 µM (inactive)
[45]
  GI50: 55 µM (inactive)
[46]
  GI50: > 100 µM (inactive)
[47]
  GI50: > 100 µM (inactive)
[55]
  GI50: > 100 µM (inactive)
[56]
  GI50: 68.9 µM (inactive)
[57]
  GI50: > 100 µM (inactive)
